Reference: patent US6939566B2, “Microbicidal formulations and methods to control microorganisms” (priority 1999, dated 2005)

Columns and labels:
[1] = test system: E. coli, Stafelococus, Bascillus, and Salmonella; test: Bactericidal efficacy of diluted disinfectants on actively growing pathogenic bacteria; format: cell-based; details: H2O2 absent; about 51 ppm complex silver
Protocol: Again, these prepared solutions were poured into dark bottles.
The above concludes the preparation of these disinfectants. However, to utilize these mixtures as bactericides, 5 ml of each bottled solution was added to 45 ml of double distilled-de-ionized water (10% by volume). […] The upper and lower concentration limits may be different if desired, depending on the nature of the desired application. For the samples where H2O2 is present, the active concentration of the disinfectant should be around 56,000 ppm.
The diluted solutions were then tested on several kinds of actively growing pathogenic bacteria to ascertain their effectiveness. Different strains of pathogenic bacteria were employed for the testing; namely, E. coli, Stafelococus, Bascillus, and Salmonella.

[2] = test system: freshly-cut roses; test: Preservation of cut flowers and plants; details: examined after 15 days; silver approximately 166 ppb in tap water for the invention's sample
Protocol: A silver concentration of approximately 166 ppb was used. Both inoculated and controlled samples were tested in which freshly-cut roses were placed in the prepared solution and tap water, respectively. Cut roses were chosen because they are very susceptible to slight changes in the surrounding area and are equally susceptible to chemicals. For comparative purposes, other preservative type chemicals were also tested; namely, silver thiosulfate and hypochlorite.
In the case of the two other chemicals used, it was observed that there was discoloration of the petals, loss of leaves and petals, and dehydration.

Substance | order of potency among the amino acid complexes [1] | condition of cut roses [2]
Silver-Arginine Complex [Example 3] | most potency | 
Silver-glutamic Acid Complex [Example 1] |  | no black or brown burns on the petals and there were no wilted flowers, and the stems and leaves were in good condition
